Results published in PubChem BioAssay AID276 (DTP/NCI, 2004).
Several values for one entry are separate records, joined by “and”; a condition that tells them apart may be missing. Equal values may be shown once. Inconclusive results and toxic doses are left out.

System: B6C3F1 mice, Lewis lung carcinoma iv, survival T/C
Experiment: NCI In Vivo Anticancer Drug Screen. Data for tumor model Lewis Lung Carcinoma (intravenous) in B6C3F1 mice
Conditions: endpoint: median survival time, higher = longer survival
Method in brief: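 Antitumor activity is assessed in tumor-bearing mice by comparing survival after compound treatment against vehicle-treated controls, reported as a T/C ratio.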

[1] = dose: 12.5 mg/kg/injection, schedule: Q01DX009 (ip), vehicle: Klucel (hydroxypropylcellulose) (HPC)
[2] = dose: 25.0 mg/kg/injection, schedule: Q01DX009 (ip), vehicle: Klucel (hydroxypropylcellulose) (HPC)
[3] = dose: 100.0 mg/kg/injection, schedule: Q01DX009 (ip), vehicle: Klucel (hydroxypropylcellulose) (HPC)
[4] = dose: 200.0 mg/kg/injection, schedule: Q01DX009 (ip), vehicle: Klucel (hydroxypropylcellulose) (HPC)
[5] = dose: 400.0 mg/kg/injection, schedule: Q01DX009 (ip), vehicle: Klucel (hydroxypropylcellulose) (HPC)
[6] = dose: 12.5 mg/kg/injection, schedule: Q01DX009 (ip), vehicle: saline
[7] = dose: 25.0 mg/kg/injection, schedule: Q01DX009 (ip), vehicle: saline
[8] = dose: 50.0 mg/kg/injection, schedule: Q01DX009 (ip), vehicle: saline
[9] = dose: 100.0 mg/kg/injection, schedule: Q01DX009 (ip), vehicle: saline
[10] = dose: 200.0 mg/kg/injection, schedule: Q01DX009 (ip), vehicle: saline
[11] = dose: 12.5 mg/kg/injection, schedule: Q01DX009 (ip), vehicle: saline with Tween-80
[12] = dose: 25.0 mg/kg/injection, schedule: Q01DX009 (ip), vehicle: saline with Tween-80
[13] = dose: 50.0 mg/kg/injection, schedule: Q01DX009 (ip), vehicle: saline with Tween-80
[14] = dose: 100.0 mg/kg/injection, schedule: Q01DX009 (ip), vehicle: saline with Tween-80
[15] = dose: 200.0 mg/kg/injection, schedule: Q01DX009 (ip), vehicle: saline with Tween-80
[16] = dose: 50.0 mg/kg/injection, schedule: Q01DX009 (ip), vehicle: Klucel (hydroxypropylcellulose) (HPC)
[17] = dose: 3.12 mg/kg/injection, schedule: Q01DX009 (ip), vehicle: saline with Tween-80
[18] = dose: 6.25 mg/kg/injection, schedule: Q01DX009 (ip), vehicle: saline with Tween-80
[19] = dose: 12.5 mg/kg/injection, schedule: Q01DX009 (ip), vehicle: suspension in saline
[20] = dose: 25.0 mg/kg/injection, schedule: Q01DX009 (ip), vehicle: suspension in saline
[21] = dose: 50.0 mg/kg/injection, schedule: Q01DX009 (ip), vehicle: suspension in saline
[22] = dose: 100.0 mg/kg/injection, schedule: Q01DX009 (ip), vehicle: suspension in saline

For COc1ccc2ccccc2c1C1NC(=O)c2ccccc2N1 (configuration not stated), the T/C [1] was 97 % of control, the T/C [2] was 100 % of control and the T/C [3] was 99 % of control. The T/C [4] was 101 % of control and the T/C [5] was 101 % of control.
With COc1ccc(OC)c(Cc2cnc3nc(N)nc(N)c3c2C)c1 the T/C (dose: 6.25 mg/kg/injection, schedule: Q01DX009 (ip), vehicle: water) was 104 % of control, the T/C (dose: 12.5 mg/kg/injection, schedule: Q01DX009 (ip), vehicle: water) was 112 % of control and the T/C (dose: 25.0 mg/kg/injection, schedule: Q01DX009 (ip), vehicle: water) was 100 % of control. For the same compound, the T/C (dose: 50.0 mg/kg/injection, schedule: Q01DX009 (ip), vehicle: water) was 92 % of control.
C=CCOCC1CO1 (configuration not stated) was tested, and the T/C [6] was 105 % of control, the T/C [7] was 100 % of control and the T/C [8] was 99 % of control. For the same compound, the T/C [9] was 104 % of control and the T/C [10] was 115 % of control.
With COc1cc2cc3cc4cc(OC)c(OC)cc4c(C)[n+]3cc2cc1OC (tested in a mixture with another compound) the T/C [6] was 112 % of control, the T/C [7] was 106 % of control and the T/C [8] was 117 % of control. The T/C [9] was 120 % of control.
With CN=C(N)N/N=C(\C)c1ccc2c(c1)Cc1cc(/C(C)=N/NC(N)=NC)ccc1-2 the T/C (dose: 0.37 mg/kg/injection, schedule: Q01DX009 (ip), vehicle: saline with Tween-80) was 95 % of control, the T/C (dose: 0.75 mg/kg/injection, schedule: Q01DX009 (ip), vehicle: saline with Tween-80) was 97 % of control and the T/C (dose: 1.5 mg/kg/injection, schedule: Q01DX009 (ip), vehicle: saline with Tween-80) was 94 % of control. For the same compound, the T/C (dose: 3.0 mg/kg/injection, schedule: Q01DX009 (ip), vehicle: saline with Tween-80) was 100 % of control.
For CNNCc1ccc(C(=O)NC(C)C)cc1, the T/C [3] was 153 % of control, the T/C [4] was 151 % of control and the T/C [5] was 200 % of control.
O=C1NC(=O)C2C3C=CC(C12)C1C2C(=O)NC(=O)C2C31 (configuration not stated) was tested, and the T/C [11] was 96 % of control and 105 % of control, the T/C [12] was 95 % of control and 102 % of control and the T/C [13] was 99 % of control. For the same compound, the T/C [14] was 96 % of control and the T/C [15] was 91 % of control.
For C[C@]12CCC(=O)C=C1CC[C@@H]1[C@@H]2C(=O)C[C@@]2(C)[C@H]1CC[C@]2(O)C(=O)CO, the T/C [2] was 95 % of control, the T/C [16] was 99 % of control and the T/C [3] was 98 % of control. For the same compound, the T/C [4] was 103 % of control and the T/C [5] was 93 % of control.
In the case of CN=S(=O)(OCCCCCOS(=O)(=NC)c1ccccc1)c1ccccc1 (configuration not stated), the T/C [17] is reported as 101 % of control, the T/C [18] is reported as 105 % of control and the T/C [11] is reported as 118 % of control. The T/C [12] was 108 % of control and the T/C [13] was 122 % of control.
CCc1ccc(C2=C(O)C(=O)C(c3ccc(CC)cc3)=C(O)C2=O)cc1 was tested, and the T/C [17] was 111 % of control, the T/C (dose: 6.0 mg/kg/injection, schedule: Q01DX009 (ip), vehicle: saline with Tween-80) was 105 % of control and the T/C [18] was 111 % of control. The T/C (dose: 12.0 mg/kg/injection, schedule: Q01DX009 (ip), vehicle: saline with Tween-80) was 103 % of control, the T/C [11] was 117 % of control and the T/C [12] was 114 % of control and 88 % of control. The T/C [13] was 103 % of control and the T/C [14] was 101 % of control.
CC1(C)CC1(Br)Br was tested, and the T/C [18] was 99 % of control, the T/C [11] was 96 % of control and the T/C [12] was 99 % of control. The T/C [13] was 100 % of control, the T/C [14] was 115 % of control and the T/C [15] was 100 % of control.
With O=C(O)C(CSC(c1ccccc1)(c1ccccc1)c1ccccc1)N=Cc1cccs1 (configuration not stated) the T/C [19] was 104 % of control, the T/C [20] was 100 % of control and the T/C [21] was 105 % of control.
In the case of CCCCN(CCCC)C(Cl)=Nc1ccccc1, the T/C (dose: 6.25 mg/kg/injection, schedule: Q01DX009 (ip), vehicle: Klucel (hydroxypropylcellulose) (HPC)) is reported as 106 % of control, the T/C [1] is reported as 107 % of control and the T/C [2] is reported as 94 % of control. For the same compound, the T/C [16] was 96 % of control and the T/C [3] was 98 % of control.
In the case of O=S(=O)(SC(S(=O)(=O)c1ccccc1)S(=O)(=O)c1ccccc1)c1ccccc1, the T/C [3] is reported as 100 % of control, the T/C [4] is reported as 102 % of control and the T/C [5] is reported as 98 % of control.
With CCOC(=O)c1cn(C)c2c1C(O)=C(C(=O)OC)CC(=O)N2 the T/C [12] was 97 % of control, the T/C [13] was 104 % of control and the T/C [14] was 113 % of control. The T/C [15] was 99 % of control and the T/C (dose: 400.0 mg/kg/injection, schedule: Q01DX009 (ip), vehicle: saline with Tween-80) was 105 % of control.
CCC(C(=O)O)C(=O)O.[NH-]CC1CCCC[N-]1.[Pt+2] was tested, and the T/C [6] was 105 % of control, the T/C [19] was 103 % of control and the T/C [7] was 106 % of control. For the same compound, the T/C [20] was 104 % of control, the T/C [8] was 113 % of control and the T/C [21] was 116 % of control. For the same compound, the T/C [22] was 123 % of control.
C=C(OP(=O)(OC)OC)Sc1ccccc1C was tested, and the T/C (dose: 0.06 mg/kg/injection, schedule: Q01DX009 (ip), vehicle: Klucel (hydroxypropylcellulose) (HPC)) was 105 % of control, the T/C (dose: 0.12 mg/kg/injection, schedule: Q01DX009 (ip), vehicle: Klucel (hydroxypropylcellulose) (HPC)) was 104 % of control and the T/C (dose: 0.25 mg/kg/injection, schedule: Q01DX009 (ip), vehicle: Klucel (hydroxypropylcellulose) (HPC)) was 110 % of control. The T/C (dose: 0.37 mg/kg/injection, schedule: Q01DX009 (ip), vehicle: Klucel (hydroxypropylcellulose) (HPC)) was 100 % of control, the T/C (dose: 0.5 mg/kg/injection, schedule: Q01DX009 (ip), vehicle: Klucel (hydroxypropylcellulose) (HPC)) was 89 % of control and the T/C (dose: 0.75 mg/kg/injection, schedule: Q01DX009 (ip), vehicle: Klucel (hydroxypropylcellulose) (HPC)) was 91 % of control.
Oc1ccc(CCl)c2cccnc12 was tested, and the T/C [6] was 105 % of control, the T/C [7] was 103 % of control and the T/C [8] was 103 % of control. For the same compound, the T/C [9] was 98 % of control.
CN(C)CCOc1ccc2c(c1)C/C(=C/c1ncc([N+](=O)[O-])n1C)C2=O was tested, and the T/C [18] was 102 % of control, the T/C [11] was 88 % of control and the T/C [12] was 104 % of control. For the same compound, the T/C [13] was 100 % of control.
With Nc1nc(N)c2c(ccc3c2ccn3Cc2cccc([N+](=O)[O-])c2)n1 the T/C (dose: 1.56 mg/kg/injection, schedule: Q01DX009 (ip), vehicle: saline with Tween-80) was 98 % of control, the T/C [17] was 102 % of control and the T/C [18] was 103 % of control.
In the case of N=C(N)Sc1cc(O)ccc1O, the T/C [6] is reported as 109 % of control, the T/C [7] is reported as 95 % of control and the T/C [8] is reported as 104 % of control. For the same compound, the T/C [9] was 99 % of control and the T/C [10] was 99 % of control.
CN(CCN(C)C(=O)CCOS(C)(=O)=O)C(=O)CCOS(C)(=O)=O was tested, and the T/C [19] was 101 % of control, the T/C [20] was 97 % of control and the T/C [21] was 102 % of control. The T/C [22] was 107 % of control.
With OCC12COCN1COC2 the T/C [6] was 103 % of control and 104 % of control, the T/C [7] was 98 % of control and 101 % of control and the T/C [8] was 100 % of control and 106 % of control. The T/C [9] was 97 % of control and 102 % of control, the T/C [10] was 98 % of control and the T/C (dose: 400.0 mg/kg/injection, schedule: Q01DX009 (ip), vehicle: saline) was 104 % of control and 112 % of control.
CC(O)CCC(=O)c1ccoc1 (configuration not stated) was tested, and the T/C (dose: 0.62 mg/kg/injection, schedule: Q03HX027 (ip), vehicle: saline) was 105 % of control, the T/C (dose: 1.25 mg/kg/injection, schedule: Q03HX027 (ip), vehicle: saline) was 97 % of control and the T/C (dose: 2.5 mg/kg/injection, schedule: Q03HX027 (ip), vehicle: saline) was 103 % of control. The T/C (dose: 5.0 mg/kg/injection, schedule: Q03HX027 (ip), vehicle: saline) was 94 % of control.
C[C@@]1(CO)[C@H](O)CC[C@@]2(C)[C@H]1CC[C@H]1C[C@@H]3C[C@@]12CC[C@@]3(O)COC(=O)CN was tested, and the T/C (dose: 0.2 mg/kg/injection, schedule: Q01DX009 (ip), vehicle: saline + alcohol) was 107 % of control, the T/C (dose: 0.4 mg/kg/injection, schedule: Q01DX009 (ip), vehicle: saline + alcohol) was 109 % of control and the T/C (dose: 0.8 mg/kg/injection, schedule: Q01DX009 (ip), vehicle: saline + alcohol) was 103 % of control. For the same compound, the T/C (dose: 1.6 mg/kg/injection, schedule: Q01DX009 (ip), vehicle: saline + alcohol) was 103 % of control, the T/C (dose: 12.5 micrograms/kg/injection, schedule: Q01DX009 (ip), vehicle: saline + alcohol) was 113 % of control and the T/C (dose: 25.0 micrograms/kg/injection, schedule: Q01DX009 (ip), vehicle: saline + alcohol) was 120 % of control. The T/C (dose: 50.0 micrograms/kg/injection, schedule: Q01DX009 (ip), vehicle: saline + alcohol) was 102 % of control, the T/C (dose: 100.0 micrograms/kg/injection, schedule: Q01DX009 (ip), vehicle: saline + alcohol) was 95 % of control and the T/C (dose: 200.0 micrograms/kg/injection, schedule: Q01DX009 (ip), vehicle: saline + alcohol) was 98 % of control.
